Assay results reported in patent publication US11278514B2, “Composition compromising dunnione as effective ingredient for prevention or alleviation of hair loss” (NADIANBIO LTD., priority 2018, dated 2022).

What was measured:
NF-κB p65 = assay: Acetylation of NF-κB p65 in skin tissue (western blot), cyclophosphamide alopecia model; format: in vivo, mice; details: cyclophosphamide alone; day 18
Protocol: (§1) In the cyclophosphamide-induced alopecia mouse model of Example 2, expression level of Sirt1 protein and acetylation reaction of the target proteins thereof, NF-κB p65 and p53, were identified on the skin tissue obtained on day 18 after hair removal.
(§2) Specifically, 10 mg of the skin tissue obtained from the animal model prepared by the method in Example 2 was homogenized by addition of a lysis solution (RIPA lysis buffer). Then, centrifugation was performed at 14,000 rpm for 10 minutes. The protein concentration in the supernatant was quantified with a bovine serum albumin (BSA) standard solution. The skin tissue protein was used in an amount of 40 μg per test solution. First, the homogenized skin tissue was mixed with a sample solution (Bio-Rad, 161-0747) and inactivated at a temperature of 95° C. for 5 minutes. Thereafter, the protein was separated by a sodium dodecyl sulfate-polyacrylamide gel electrophoresis (SDS-PAGE) method, and then transferred to a nitrocellulose membrane. Treatment with anti-Sirt1 antibody (Abcam), anti-acetyl NF-κB p65 antibody and anti-acetyl p53 antibody (Cell Signaling Technologies), and anti-β-actin antibody (Santa Cruz Biotechnology) as primary antibodies were performed, and reaction was allowed to proceed. […]

Sirt1 protein = assay: Expression level of Sirt1 protein in skin tissue (western blot), cyclophosphamide alopecia model; format: in vivo, mice; details: cyclophosphamide alone; day 18
Protocol: as §1, §2

NQO1 knockout mice [1] = details: cyclophosphamide alone (150 mg/kg i.p.), until day 18
Protocol: (§3) The day, on which the NQO1 knockout mice were hair-removed according to Example 1, was set as day 0, and the animals were divided into the following experimental groups and used for experiments: normal group (Control, 4 animals) in which only PBS is intraperitoneally injected on day 9; cyclophosphamide group (CYP, 6 animals) in which cyclophosphamide (150 mg/kg) is intraperitoneally injected on day 9; combination-treated group (CYP+Dunnione, 6 animals) in which dunnione is orally administered on a daily basis starting from 3 days prior to treatment with cyclophosphamide; and dunnione alone-treated group (Dunnione, 4 animals) in which only dunnione (20 mg/kg) is administered (FIG. 1).

[2] = system: C57BL/6 mice having alopecia caused by cyclophosphamide; details: cyclophosphamide alone (150 mg/kg i.p.); day 18
Protocol: as §3, with “the” for “the NQO1 knockout”, “in” for “according to”, “groups:” for “experimental groups and used for experiments:”
The day, on which the mice were hair-removed in Example 1, was set as day 0, and the mice in each of the experimental groups described in Example 2 were sacrificed on day 18. Subsequently, the mouse dorsal skin was dissected parallel or perpendicular to the vertebral line, and removed. The removed skin was fixed with a Bouin's solution for 12 hours, subjected to dehydration, and embedded in paraffin. Then, the resulting product was prepared into 5-μm sections. The prepared sections were subjected to hematoxylin and eosin (H&E) staining, and histological changes in the skin in each experimental group were observed.

NAD^+ = assay: NAD+ and NADH concentrations and NAD+/NADH ratio in skin tissue, cyclophosphamide alopecia model; format: in vivo, mice; details: cyclophosphamide alone vs normal group; day 18
Protocol: Specifically, in order to quantify the NAD^+ and NADH concentrations in the skin tissue obtained from the animal model prepared by the method in Example 2, the skin tissue was tested with the analysis kit (E2ND-100) of BioAssay Systems according to the instruction manual, and then the NAD^+/NADH ratio was analyzed. First, 10 mg of skin tissue was collected from the animal model. Then, 100 μl of extraction solution for NAD^+ or NADH was added to the skin tissue and homogenized. Then, the homogenized skin tissue was subjected to heat treatment at 60° C. for 5 minutes. Neutralization was performed by addition of the same volume of the extraction solution, and then centrifugation was performed at 14,000 rpm for 5 minutes to obtain the supernatant. Then, a developing reagent was added to the supernatant. The NAD^+ and NADH concentrations were determined from the absorbance measured at a wavelength of 565 nm, and the NAD^+/NADH ratio was analyzed.

patients = details: cancer patients; Batchelor D., Eur J Cancer Care, 2001; cited from earlier work
NQO1 knockout mice [3] = details: cyclophosphamide alone, day 18
Protocol: as §3
The day, on which the NQO1 knockout mice were hair-removed according to Example 1, was set as day 0, and the mice in each of the experimental groups described in Example 3 were sacrificed on day 18. Subsequently, the mouse dorsal skin was dissected parallel or perpendicular to the vertebral line, and removed. The removed skin was fixed with a Bouin's solution for 12 hours, subjected to dehydration, and embedded in paraffin. Then, the resulting product was prepared into 5-μm sections. The prepared sections were subjected to hematoxylin and eosin (H&E) staining, and histological changes in the skin in each experimental group were observed.

Sirt1 = Sirt1 activity in skin tissue (fluorescent Sirt1 detection kit), cyclophosphamide alopecia model; format: in vivo, mice; details: cyclophosphamide alone; day 18
Protocol: In addition, the skin tissue obtained from the animal model prepared by the method in Example 2 was homogenized. The homogenized skin tissue was tested with the fluorescent Sirt1 detection kit (BML-AK555-0001) of Enzo Life Sciences International, Inc. according to the instruction manual, and then Sirt1 activity was analyzed. 40 μg of the homogenized skin tissue was mixed with a reaction solution (Fluor de Lys-Sirt1, NAD+, buffer solution (25 mM Tris-HCl (pH8.0), 137 mM NaCl, 2.7 mM […], 1 mM MgCl2, and 1 mg/mL BSA)), and reaction was allowed to proceed at a temperature of 37° C. for 1 hour. Then, additional reaction was allowed to proceed for 5 minutes under a condition in which a developer is added. In order to check the final Sirt1 activity, readings were measured for the reaction solution using the CytoFluor series 4000 fluorometer (PerSeptive Biosystems, Inc., USA) with the excitation wavelength set to 360 nm and the emission to 460 nm.

p53 = assay: Acetylation of p53 in skin tissue (western blot), cyclophosphamide alopecia model; format: in vivo, mice; details: cyclophosphamide alone; day 18
Protocol: as §1, §2

O=P1(N(CCCl)CCCl)NCCCO1 (stereo not shown) [cyclophosphamide, reference compound]
acetylation of NF-κB p65 in skin tissue (NF-κB p65): increased
expression level of Sirt1 protein in skin tissue (Sirt1 protein): decreased
hair growth, visual observation of skin (NQO1 knockout mice [1]): hair hardly grew until day 18 after hair removal
development of hair follicles and inner root sheaths (histology) [2]: the hair follicles have poorly developed or the inner root sheaths have insufficiently developed
NAD^+ concentration in skin tissue (NAD^+): decreased
NAD^+/NADH ratio in skin tissue (NAD^+): decreased
patients in whom the agent causes CIA (patients): ≥ 60%
development of hair follicles and inner root sheaths (histology) (NQO1 knockout mice [3]): the hair follicles have poorly developed or the inner root sheaths have insufficiently developed
Sirt1 activity in skin tissue (Sirt1): decreased
acetylation of p53 in skin tissue (p53): increased
